From article PMC2866155 (Chemical biology & drug design, 2009) come the findings set out here.

Format in all cases: cell-based
For one assay, the system named is MCF-7 cells. Nature of the assay: MTT antiproliferative assay, MCF-7. To be noted: Homo sapiens, MCF7, 72 h, read-out: MCF-7 IC50. (Formazan colour is commonly taken as a measure of viable cells.)
For a further assay, the system named is SKBR-3 cells. Nature of the assay: MTT antiproliferative assay, SKBR-3. As to conditions: Homo sapiens, SK-BR-3, 72 h, read-out: SKBR-3 IC50.
A further assay deals with HCT116 cells. Nature of the assay: MTT antiproliferative assay, HCT116. To be noted: Homo sapiens, HCT-116, 72 h, read-out: HCT116 IC50.

For the compound `COc1ccc(C=Cc2cc(NC(=O)c3ccc(C(N)=NO)cc3)cc(OC)c2)cc1` [HERP6, 4-(N'-hydroxycarbamimidoyl)-N-[3-methoxy-5-(4-methoxystyryl)phenyl] benzamide], the 50% inhibitory concentration (IC50) (as a rule, the concentration needed to halve the response being measured) with MCF-7 cells came out at 9.2 µM; in the assay with SKBR-3 cells, 1.62 µM; in the assay on HCT116 cells it was 11.9 µM.
